# Reference: US10899773B2 (priority 2014, dated 2021)
# Columns and labels:
# Assay in all cases: cells
# Assay type in all cases: cell-based
# [1] = tested on: MES SA; conditions: Homo sapiens, 72 h, read-out: MES SA IC50 nM
# [2] = tested on: MES SA DX; conditions: Homo sapiens, 72 h, read-out: MES SA DX IC50 nM
# [3] = tested on: 293T; conditions: Homo sapiens, HEK-293T, 72 h, read-out: 293T IC50 nM
Compound,IC50 [1] [nM],IC50 [2] [nM],IC50 [3] [nM]
COc1c2c(c(O)c3c4c(c(C)cc13)C1C3OC5(C(OC)OC)OC15[C@]1(CO1)[C@]3(OC1CC(O)C(O)(C(C)=O)C(C)O1)O4)C(=O)[C@@H](O)C[C@@H]2OC1CC(C)(O)C(O)C(C)O1 (stereo partly drawn) [Trox14],11.1,> 1000,8.02
COc1c2c(c(O)c3c4c(c(C)cc13)C1C3OC5(C(OC)OC)OC15[C@]1(CO1)[C@]3(OC1CC(O)C(O)(C(C)=O)C(C)O1)O4)C(=O)[C@@H](O)C[C@@H]2OC1CC(C)(O)C(OC(C)=O)C(C)O1 (stereo partly drawn) [Trox13],0.74,204,0.702
COc1c2c(c(O)c3c4c(c(C)cc13)C1C3OC5(C(OC)OC)OC15[C@]1(CO1)[C@]3(OC1CC(OC(C)=O)C(O)(C(C)=O)C(C)O1)O4)C(=O)[C@@H](O)C[C@@H]2O (stereo partly drawn) [Trox15],157,> 1000,95.4
COc1c2c(c(O)c3c4c(c(C)cc13)C1C3OC5(C(OC)OC)OC15[C@]1(CO1)[C@]3(O)O4)C(=O)[C@@H](O)C[C@@H]2OC1CC(C)(O)C(OC(C)=O)C(C)O1 (stereo partly drawn) [Trox12],18.1,> 1000,14.9
COc1c2c(c(O)c3c4c(c(C)cc13)C1C3OC5(C(OC)OC)OC15[C@]1(CO1)[C@]3(OC1CC(OC(C)=O)C(O)(C(C)=O)C(C)O1)O4)C(=O)[C@@H](O)C[C@@H]2OC1CC(C)(O)C(OC(C)=O)C(C)O1 (stereo partly drawn) [Trox16],2.02,> 1000,2.81
